The values below come from patent publication US20150094348A1, “GPR17-MODULATING COMPOUNDS, DIAGNOSTIC AND THERAPEUTIC USES THEREOF” (Centro Cardiologico Monzino S.p.A., priority 2010, published 2015).

One experiment deals with T1, human receptor GPR17 (Homo sapiens, UniProt Q13304).
T1 construct: expressed in transfected cells; host or cells: human 1321N1 astrocytoma cells, calcium phosphate transfection with pcDNA3.1; plasma membranes used
As to the kind of experiment: [35S]GTPγS binding assay on membranes of 1321N1 cells transfected with human GPR17. The class given is biochemical. Particulars: for Emax / EC50: [35S]GTPγS binding; for Emax: LTC4 at 100 nM, in % (unit assumed); for % Emax vs standard: efficacy relative to LTC4 set to 100%; for EC50: 1321N1 cells expressing human GPR17, mean±SEM of three experiments; for effect of antagonist on concentration-response curve of the compound: in presence of cangrelor or montelukast. The procedure:
A—The compounds according to the invention were evaluated for their functional activity on GPR17 using a well-known assay for GPCRs, the [^35S]GTPγS binding assay, which is based on the ability of the agonist to increase radioactive GTP binding when a GPCR is activated. The antagonist activity is evaluated according to the ability to counteract the increased [^35S]GTPγS binding induced by the LTC4 reference agonist.
The activation of GPCRs by agonists stimulates the dissociation of GDP from G-protein, thus increasing GTP binding in its place. This increase in GTP binding to G-protein can be quantified in vitro with [^35S]GTPγS. The effect of GPCR activation on [^35S]GTPγS binding is catalytic, because it increases the [^35S]GTPγS binding rate rather than [^35S]GTPγS binding equilibrium. […] For some GPCRs, the binding stimulated by the agonist (ie. the difference between GTP binding in the presence and absence of the agonist) increases with time, peaks and then falls to zero; optimal increases in [^35S]GTPγS binding induced by the agonist are often obtained before equilibrium is attained, rather than at equilibrium. […] The control and transfected cells were homogenised in 5 mM Tris-HCl and 2 mM EDTA (pH 7.4) and centrifuged at 48000 g for 15 min at 4° C. The resulting pellets (plasma membranes) were washed in 50 mM Tris-HCl and 10 mM MgCl2 (pH 7.4) and stored at −80° C. until use.
The Graph-Pad Prism program was used for the analysis and graphic presentation of the [^35S]GTPγS binding data. All the data are shown as the mean±SEM of three different experiments. The data were tested for statistical significance with the paired Student's t test or analysis of variance (one-way ANOVA), as appropriate. When significant differences were observed, the Newman-Keuls multiple comparison test (one-way ANOVA) was performed. A value of P<0.05 was considered significant.
(Binding of GTPγS marks nucleotide exchange on a G protein.)

The nature of experiment [1]: [35S]GTPγS binding assay on 1321N1 cells transfected only with control vector pcDNA3.1. It counts as biochemical, human. Particulars: cells transfected only with pcDNA3.1. The procedure:
Human 1321N1 cells were cultured as described [Fumagalli et al., 2004, Biochem Pharmacol 68:113]. For the [^35S]GTPγS assay, 10^6 1321N1 cells were seeded on 75 cm^2 flasks and transfected by the calcium phosphate precipitation method, with the vector pcDNA3.1 containing the construct encoding for human receptor GPR17, and with the empty vector pcDNA3.1 as control [Fumagalli et al., 2004, Biochem Pharmacol 68:113].
The activation of GPCRs by agonists stimulates the dissociation of GDP from G-protein, thus increasing GTP binding in its place. This increase in GTP binding to G-protein can be quantified in vitro with [^35S]GTPγS. The effect of GPCR activation on [^35S]GTPγS binding is catalytic, because it increases the [^35S]GTPγS binding rate rather than [^35S]GTPγS binding equilibrium. Consequently, the [^35S]GTPγS binding assay is intrinsically a functional concentration-response curve, not an equilibrium binding assay [Lazareno, 1999, Methods Mol Biol 1106:231; Milligan, 2003, Trends Pharmacol Ski 24:87]. For some GPCRs, the binding stimulated by the agonist (ie. the difference between GTP binding in the presence and absence of the agonist) increases with time, peaks and then falls to zero; optimal increases in [^35S]GTPγS binding induced by the agonist are often obtained before equilibrium is attained, rather than at equilibrium. […]

Experiment [2] concerns oligodendrocyte precursor cells (OPCs). As to the kind of experiment: Pro-myelinating activity assay on oligodendrocyte precursor cell (OPC) cultures (MBP-positive cells). The class given is cell-based, Sprague-Dawley rat. As to conditions: 48 h after start of treatment.
Protocol: The OPCs were cultured on plates containing 24 mm slides coated with poly-D,L-ornithine in Neurobasal medium with 2% of B27 supplement (Invitrogen), L-glutamine (2 mM) and enriched with growth factors PDGF and betaFGF (10 ng/ml) to promote proliferation. In order to promote differentiation, after 24 h, the culture medium was replaced with Neurobasal with 2% B27 without growth factors and with the addition of triiodothyronine T3 (400 ng/ml).
The ability of the agonists to promote myelination was evaluated by measuring the increase in the number of cells positive for the MBP marker present in the culture compared with the control treated with the carrier alone. In particular, 48 h after treatment with the agonists, the cells were fixed in 4% paraformaldehyde in 0.1 M PBS and stained by immunocytochemistry using an antibody specific for MBP. […] The slides were mounted with Dako Fluorescent Mounting Medium (Dako, Milan) on cover slips and analysed with an inverted optical microscope (AXIOVERT 200 M, Zeiss, Milan). The images were processed and acquired with Axiovision 4.4 software, in the rhodamine fluorescence channel for MBP. The effects of the treatments on OPC myelination were quantified by manual count using ImageJ software (Wayne Rasband, Research Services Branch of the National Institute of Mental Health of Bethesda, USA).

Marks after values point to notes of the source that are not given here.

T1 sequence (Q13304 29-367 limits assumed): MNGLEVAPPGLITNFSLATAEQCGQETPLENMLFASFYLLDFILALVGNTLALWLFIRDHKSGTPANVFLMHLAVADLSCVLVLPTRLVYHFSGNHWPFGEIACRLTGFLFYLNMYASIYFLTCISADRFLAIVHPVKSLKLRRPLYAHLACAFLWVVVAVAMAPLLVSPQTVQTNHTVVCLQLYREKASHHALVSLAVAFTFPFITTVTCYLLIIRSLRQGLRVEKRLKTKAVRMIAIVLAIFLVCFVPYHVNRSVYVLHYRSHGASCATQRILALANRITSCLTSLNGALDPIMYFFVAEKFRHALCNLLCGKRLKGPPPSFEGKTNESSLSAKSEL

`CCCCC/C=C\C\C=C/C=C/C=C/[C@@H](SC[C@H](NC(=O)CC[C@H](N)C(=O)O)C(=O)NCC(=O)O)[C@@H](O)CCCC(=O)O` [LTC4, reference compound]: at human receptor GPR17, the Emax came out at 144.8 ± 0.4 and the “% Emax vs standard” value amounted to 100%. Also, the “response in [35S]GTPγS binding in control-vector cells” value in experiment [1] was “unable to induce a response”.

For the compound `COc1ccc(-n2c(SC(C)C(=O)Nc3ccccc3)nnc2-c2ccccc2OC)cc1` (centres unmarked) [(I), 2-[[5-(2-methoxyphenyl)-4-(4-methoxyphenyl)-4H-1,2,4-triazol-3-yl]thio]-N-phenylpropanamide], on human receptor GPR17, a half-maximal effect (EC50) was put at 0.109 ± 0.028 nM; the Emax is recorded as 145.6 ± 5.7; the “% Emax vs standard” value is listed as 100.6%; the “effect of antagonist on concentration-response curve of the compound” value is on record as “shifted to the right (increase in EC50), but no effect on efficacy was observed”. For the same compound, the “effect of antagonist on concentration-response curve of the compound” value at human receptor GPR17 (listed as I) was “reduction in the efficacy”.

For the compound `CSCCNc1nc(SCCC(F)(F)F)nc2c1ncn2[C@@H]1O[C@H](COP(=O)(O)OP(=O)(O)C(Cl)(Cl)P(=O)(O)O)[C@@H](O)[C@H]1O` [cangrelor, reference compound], the “type of antagonism on concentration-response curves of compound of formula (I)” value on human receptor GPR17 (curves of compound (I) in presence of different concentrations of the antagonist (FIG. 1 C, D)) is “competitive antagonist”.

On to `O=C(Nc1ccc(C(F)(F)F)cc1)N1CCC(c2nc(O)c3nnn(Cc4ccccc4Cl)c3n2)CC1` [(V), 4-[3-[(2-chlorophenyl)methyl]-6,7-dihydro-7-oxo-3H-1,2,3-triazole[4,5-d]pyrimidin-5-yl]-N-[4-(trifluoromethyl)phenyl]-1-piperidinecarboxamide], for which, at human receptor GPR17, a half-maximal response (EC50) required 0.268 ± 0.009 nM, the Emax was 161.5 ± 2.4 and the “% Emax vs standard” value was 111.5** %.

With `CCCCC/C=C\C\C=C/C=C/C=C/[C@@H](SC[C@H](N)C(=O)O)[C@@H](O)CCCC(=O)O` [LTE4], in experiment [2], the “pro-myelinating activity, in words (mature cells expressing MBP)” value was “increase the number of mature cells in culture expressing MBP”.

On to `O=c1ccn([C@@H]2O[C@H](COP(=O)(O)OP(=O)(O)O)[C@@H](O)[C@H]2O)c(=O)[nH]1` [UDP], for which the “pro-myelinating activity, in words (mature cells expressing MBP)” value in experiment [2] was “increase the number of mature cells in culture expressing MBP”.

`COCCn1nnnc1C(c1cc2cc(OC)ccc2[nH]c1=O)N(CCc1ccccc1)Cc1ccccc1` (centres unmarked) [(II), 6-methoxy-3-[[1-(2-methoxyethyl)-1H-tetrazol-5-yl][(2-phenylethyl)(phenylmethyl)-amino]methyl]-2(1H)-quinolinone]: at human receptor GPR17, the EC50 (usually the concentration that produces a half-maximal response) was determined as 3.67 ± 0.51 nM, the Emax is 206.8 ± 8.3 and the “% Emax vs standard” value was 142.8*** %.

In the case of `COc1ccc(N(C(=O)Cn2nnc3ccccc32)C(C(=O)NCC2CCCO2)c2ccc(F)cc2)cc1` (centres unmarked) [(IV), N-[1-(4-fluorophenyl)-2-oxo-2-[[(tetrahydro-2-furanyl)methyl]amino]ethyl]-N-(4-methoxyphenyl)-1H-benzotriazol-1-acetamide], on human receptor GPR17, the 50% effective concentration (EC50) is 2.27 ± 0.07 nM, the Emax is reported as 173.5 ± 0.5 and the “% Emax vs standard” value is given as 119.8*** %.
